The results in this text go back to patent US10723699B2 (Hyundai Pharm Co., Ltd., priority 2015, dated 2020).

Each structure is given as a SMILES string. Read-outs that look alike come from different tables or passages of the source.

This assay addresses T1, G protein-coupled receptor 119 (GPR-119) (Mesocricetus auratus, UniProt A0A1U8CD06).
T1 construct: hamster-derived β-cells containing G protein-coupled receptor 119 (GPR-119), HIT-T15 cells; host or cells: HIT-T15 (hamster pancreatic β-cells)
T1 sequence (A0A1U8CD06 1-334): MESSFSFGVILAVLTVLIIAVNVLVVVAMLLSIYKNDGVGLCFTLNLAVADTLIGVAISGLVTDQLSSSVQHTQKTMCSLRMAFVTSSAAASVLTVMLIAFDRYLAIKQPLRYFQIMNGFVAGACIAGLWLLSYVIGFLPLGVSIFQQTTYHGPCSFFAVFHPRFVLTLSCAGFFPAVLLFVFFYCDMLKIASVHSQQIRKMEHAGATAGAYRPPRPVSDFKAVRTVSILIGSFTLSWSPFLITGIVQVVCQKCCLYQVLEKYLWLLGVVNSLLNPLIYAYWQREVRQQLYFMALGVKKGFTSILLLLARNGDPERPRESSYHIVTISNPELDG
Description: cAMP activity in HIT-T15 cells (cAMP dynamic kit, FRET). Format: cell-based, hamster. In outline:
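Hamster HIT-T15 cells (60,000/well) were treated next day with compound at six concentrations, 0.0032–10 μM, for 1 h at 37° C. Cells were then lysed and cAMP measured by competitive HTRF immunoassay (D2-cAMP, cryptate anti-cAMP). Activity was derived as the change in FRET signal relative to DMSO.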

[1] abbreviates: 1 hour at 37° C., six concentrations 0.0032 to 10 μM, read-out: EC50.
The mark [2] stands for this setting: EC50 (nM), 1 hour at 37° C., six concentrations 0.0032 to 10 μM.

By EC50 is commonly meant the concentration needed to bring the measured effect to its halfway point. Regarding `CC(C)OC(=O)N1CCC(COc2ccc(C3=CCC(C(=O)N4CCOCC4)CC3)cc2F)CC1` (stereo not shown) [Example 444, isopropyl 4-((2-fluoro-4-(4-(morpholine-4-carbonyl)cyclohex-1-enyl)phenoxy)methyl)piperidine-1-carboxylate], the EC50 was 26 nM under setting [1] and not above 50 nM (Table 2, read-out: EC50 value).

Regarding `CCc1cnc(N2CCC(COc3ccc(C4=CCC(C(=O)N5CC(F)(F)C(F)(F)C5)CC4)c(F)c3)CC2)nc1` (stereo not shown) [Example 455, (4-(4-((1-(5-ethylpyrimidin-2-yl)piperidin-4-yl)methoxy)-2-fluorophenyl)cyclohex-3-enyl)(3,3,4,4-tetrafluoropyrrolidin-1-yl)methanone], the EC50 was 18 nM under setting [1] and not above 50 nM (Table 2, read-out: EC50 value).

For the compound `CC(C)(C)OC(=O)N1CCC(COc2ccc(C3=CCC(C(=O)N4CCOCC4)CC3)nc2)CC1` (stereo not shown) [Example 327, tert-butyl 4-((6-(4-(morpholine-4-carbonyl)cyclohex-1-enyl)pyridin-3-yloxy)methyl)piperidine-1-carboxylate], the EC50 under setting [1] was determined as 80 nM.

Regarding `CC(C)c1noc(N2CCC(COc3ccc(C4=CCC(C(=O)N5CCCC5)CC4)cc3F)CC2)n1` (stereo not shown) [Example 331, (4-(3-fluoro-4-((1-(3-isopropyl-1,2,4-oxadiazol-5-yl)piperidin-4-yl)methoxy)phenyl)cyclohex-3-enyl)(pyrrolidin-1-yl)methanone], the EC50 under setting [1] was 11 nM and the EC50 (Table 2, read-out: EC50 value) was not above 50 nM.

With `CCc1cnc(N2CCC(COc3ccc(C4=CCC(C(=O)N5CCC(CCO)CC5)CC4)cc3F)CC2)nc1` (stereo not shown) [Example 296, (4-(4-((1-(5-ethylpyrimidin-2-yl)piperidin-4-yl)methoxy)-3-fluorophenyl)cyclohex-3-enyl)(4-(2-hydroxyethyl)piperidin-1-yl)methanone], the EC50 by setting is: under setting [1], 6.8 nM; (Table 2, read-out: EC50 value) not above 50 nM.

Turning to `CCc1cnc(N2CCC(COc3ccc(C4=CCC(C(=O)N5CCC5)CC4)cc3C#N)CC2)nc1` (stereo not shown) [Example 387, 5-(4-(azetidine-1-carbonyl)cyclohex-1-enyl)-2-((1-(5-ethylpyrimidin-2-yl)piperidin-4-yl)methoxy)benzonitrile], the EC50 under setting [1] was determined as 79 nM.

With `CC(C)OC(=O)N1CCC(COc2ccc(C3=CCC(C(=O)N4CCCC4)CC3)cc2F)CC1` (stereo not shown) [Example 401, isopropyl 4-((2-fluoro-4-(4-(pyrrolidine-1-carbonyl)cyclohex-1-enyl)phenoxy)methyl)piperidine-1-carboxylate], the EC50 was 34 nM under setting [1] and not above 50 nM (Table 2, read-out: EC50 value).

As for `CC(C)c1noc(N2CCC(COc3ccc(C4=CCC(C(=O)N5CCN(CCCO)CC5)CC4)cc3F)CC2)n1` (stereo not shown) [Example 347, (4-(3-fluoro-4-((1-(3-isopropyl-1,2,4-oxadiazol-5-yl)piperidin-4-yl)methoxy)phenyl)cyclohex-3-enyl)(4-(3-hydroxypropyl)piperazin-1-yl)methanone], the EC50 under setting [1] came out at 55 nM.

Regarding `O=C(NCCO)C1CC=C(c2ccc(OCC3CCN(c4ccccn4)CC3)cc2)CC1` (stereo not shown) [Example 358, N-(2-hydroxyethyl)-4-(4-((1-(pyridin-2-yl)piperidin-4-yl)methoxy)phenyl)cyclohex-3-enecarboxamide], the EC50 under setting [1] worked out at 190 nM.

As for `CCc1cnc(N2CCC(COc3ccc(C4=CCC(C(=O)NCC(C)(C)CO)CC4)cc3)CC2)nc1` (stereo not shown) [Example 177, 4-(4-((1-(5-ethylpyrimidin-2-yl)piperidin-4-yl)methoxy)phenyl)-N-(3-hydroxy-2,2-dimethylpropyl)cyclohex-3-enecarboxamide], the EC50 (Table 2, read-out: EC50 value) is not above 50 nM.

For the compound `CC(C)c1noc(N2CCC(COc3ccc(C4=CCC(C(=O)N5CCN(C)CC5)CC4)cc3F)CC2)n1` (stereo not shown) [Example 382, (4-(3-fluoro-4-((1-(3-isopropyl-1,2,4-oxadiazol-5-yl)piperidin-4-yl)methoxy)phenyl)cyclohex-3-enyl)(4-methylpiperazin-1-yl)methanone], the EC50 reads like this: under setting [1], 42 nM; (Table 2, read-out: EC50 value) not above 50 nM.

Take `CC(C)c1noc(N2CCC(COc3ccc(C4=CCC(C(=O)NC5CCC5)CC4)cc3F)CC2)n1` (stereo not shown) [Example 364, N-cyclobutyl-4-(3-fluoro-4-((1-(3-isopropyl-1,2,4-oxadiazol-5-yl)piperidin-4-yl)methoxy)phenyl)cyclohex-3-enecarboxamide]: the EC50 under setting [1] came out at 85 nM.

`CCc1cnc(N2CCC(COc3ccc(C4=CCC(C(=O)N5CC(=O)C5)CC4)cc3F)CC2)nc1` (stereo not shown) [Example 295, 1-(4-(4-((1-(5-ethylpyrimidin-2-yl)piperidin-4-yl)methoxy)-3-fluorophenyl)cyclohex-3-enecarbonyl)azetidin-3-one]: the EC50 is, setting by setting: under setting [1], 43 nM; (Table 2, read-out: EC50 value) not above 50 nM.

`CC(C)(C)OC(=O)N1CCC(COc2ccc(C3=CCC(C(=O)N4CCC(C#N)CC4)CC3)nc2)CC1` (stereo not shown) [Example 340, tert-butyl 4-((6-(4-(4-cyanopiperidine-1-carbonyl)cyclohex-1-enyl)pyridin-3-yloxy)methyl)piperidine-1-carboxylate]: the EC50 is 28 nM under setting [1] and not above 50 nM (Table 2, read-out: EC50 value).

Take `CCN1CCN(C(=O)C2CC=C(c3ccc(OCC4CCN(c5nc(C(C)C)no5)CC4)c(F)c3)CC2)CC1` (stereo not shown) [Example 367, (4-ethylpiperazin-1-yl)(4-(3-fluoro-4-((1-(3-isopropyl-1,2,4-oxadiazol-5-yl)piperidin-4-yl)methoxy)phenyl)cyclohex-3-enyl)methanone]: the EC50 under setting [1] turned out to be 26 nM and the EC50 (Table 2, read-out: EC50 value) was not above 50 nM.

Consider `CCc1cnc(N2CCC(COc3ccc(C4=CCC(C(=O)N5CCCCC5)CC4)cc3C(F)(F)F)CC2)nc1` (stereo not shown) [Example 375, (4-(4-((1-(5-ethylpyrimidin-2-yl)piperidin-4-yl)methoxy)-3-(trifluoromethyl)phenyl)cyclohex-3-enyl)(piperidin-1-yl)methanone], for which the EC50 under setting [1] amounted to 110 nM.

In the case of `CCc1cnc(N2CCC(COc3ccc(C4=CCC(C(=O)N5CC=CC5)CC4)cc3)CC2)nc1` (stereo not shown) [Example 235, (2,5-dihydro-1H-pyrrol-1-yl)(4-(4-((1-(5-ethylpyrimidin-2-yl)piperidin-4-yl)methoxy)phenyl)cyclohex-3-enyl)methanone], the EC50 (Table 2, read-out: EC50 value) was not above 50 nM.

Turning to `CCc1cnc(N2CCC(COc3ccc(C4=CCC(C(=O)N5CCC(=O)CC5)CC4)cc3F)CC2)nc1` (stereo not shown) [Example 308, 1-(4-(4-((1-(5-ethylpyrimidin-2-yl)piperidin-4-yl)methoxy)-3-fluorophenyl)cyclohex-3-enecarbonyl)piperidin-4-one], the EC50 by setting is: under setting [2], 23 nM; (EC50 value, Table 2) not above 50 nM.

Turning to `CC(C)(C)OC(=O)N1CCC(COc2ccc(C3=CCC(C(=O)N4CCc5ccccc5C4)CC3)cc2)CC1` (stereo not shown) [Example 239, tert-butyl 4-((4-(4-(1,2,3,4-tetrahydroisoquinoline-2-carbonyl)cyclohex-1-enyl)phenoxy)methyl)piperidine-1-carboxylate], for the setting “Table 2, read-out: EC50 value”, the EC50 was not above 50 nM.

For `CC(C)c1noc(N2CCC(COc3ccc(C4=CCC(C(=O)N5CCNCC5)CC4)cc3F)CC2)n1` (stereo not shown) [Example 381, (4-(3-fluoro-4-((1-(3-isopropyl-1,2,4-oxadiazol-5-yl)piperidin-4-yl)methoxy)phenyl)cyclohex-3-enyl)(piperazin-1-yl)methanone], under setting [1], the EC50 amounted to 110 nM.

As to `CC(C)c1noc(N2CCC(COc3ccc(C4=CCC(C(=O)NC5CCCCC5)CC4)cc3F)CC2)n1` (stereo not shown) [Example 366, N-cyclohexyl-4-(3-fluoro-4-((1-(3-isopropyl-1,2,4-oxadiazol-5-yl)piperidin-4-yl)methoxy)phenyl)cyclohex-3-enecarboxamide], the EC50 by setting is: under setting [1], 39 nM; (Table 2, read-out: EC50 value) not above 50 nM.

Regarding `CCc1cnc(N2CCC(COc3ccc(C4=CCC(C(=O)N5CCN(CCCO)CC5)CC4)cc3)CC2)nc1` (stereo not shown) [Example 380, (4-(4-((1-(5-ethylpyrimidin-2-yl)piperidin-4-yl)methoxy)phenyl)cyclohex-3-enyl)(4-(3-hydroxypropyl)piperazin-1-yl)methanone], the EC50 under setting [1] was determined as 79 nM.

As for `CC(C)c1noc(N2CCC(COc3ccc(C4=CCC(C(=O)N5CCN(C6CC6)CC5)CC4)cn3)CC2)n1` (stereo not shown) [Example 355, (4-cyclopropylpiperazin-1-yl)(4-(6-((1-(3-isopropyl-1,2,4-oxadiazol-5-yl)piperidin-4-yl)methoxy)pyridin-3-yl)cyclohex-3-enyl)methanone], the EC50 was 46 nM under setting [1] and not above 50 nM (Table 2, read-out: EC50 value).

`Cn1nnnc1N1CCC(COc2ccc(C3=CCC(C(=O)N4CCCC4)CC3)cc2F)CC1` (stereo not shown) [Example 420, (4-(3-fluoro-4-((1-(1-methyl-1H-tetrazol-5-yl)piperidin-4-yl)methoxy)phenyl)cyclohex-3-enyl)(pyrrolidin-1-yl)methanone]: the EC50 under setting [1] turned out to be 110 nM.

Regarding `CCc1cnc(N2CCC(COc3ccc(C4=CCC(C(=O)N(C)CCCO)CC4)cc3F)CC2)nc1` (stereo not shown) [Example 376, 4-(4-((1-(5-ethylpyrimidin-2-yl)piperidin-4-yl)methoxy)-3-fluorophenyl)-N-(3-hydroxypropyl)-N-methylcyclohex-3-enecarboxamide], the EC50 was 10.5 nM under setting [1] and not above 50 nM (Table 2, read-out: EC50 value).

Regarding `CC(C)c1noc(N2CCC(COc3ccc(C4=CCC(C(=O)N5CCC(=O)CC5)CC4)cc3F)CC2)n1` (stereo not shown) [Example 345, 1-(4-(3-fluoro-4-((1-(3-isopropyl-1,2,4-oxadiazol-5-yl)piperidin-4-yl)methoxy)phenyl)cyclohex-3-enecarbonyl)piperid in-4-one], the EC50 is 36 nM under setting [2] and not above 50 nM (EC50 value, Table 2).
